The test system of one data set is SW480 tumor cells. Description: Co-culture of NK-92 natural killer cells and SW480 tumor cells. The class given is cell-based, Human. As to the method: Immune cell co-culture experiments. Co-culture experiments were conducted with GFP+ SW480 or HCT-116 colorectal cancer cells and either NK-92 natural killer cells or TALL-104 T cells in a 48-well plate, in the presence or absence of 9-ING-41. HCT-116 cells were labeled using CellTracker™ Green CMFDA (5-chloromethylfluorescein diacetate), immune cells (NK-92, TALL-104) were labeled using CellTracker™ Blue CMAC Dye (7-amino-4-chloromethylcoumarin), and ethidium homodimer-1 (EthD-1) was used as a marker of cell death (Invitrogen, Thermo Fisher Scientific, Waltham, MA, USA).
Co-culture experiments were conducted with GFP+ SW480 colorectal cancer cells and either NK-92 natural killer cells or TALL-104 T cells at various effector/target ratios in a 48-well plate, in the presence or absence of 9-ING-41.
The inventors co-cultured green fluorescent SW480 tumor cells with NK-92 natural killer cells at a 1:1 effector target cell ratio (E:T) for twenty-four hours and imaged by fluorescence microscopy. Ethidium homodimer was used to visualize dead cells. The inventors obtained photographic images of the co-cultured cells.
An average baseline amount of NK-92-mediated tumor cell killing of about 39% occurred in the absence of drug.

The next data set relates to advanced malignancies. The settings on record: cited from earlier work.

Each structure is given as a SMILES string.

As for `Cn1cc(C2=C(c3coc4ccc(F)cc34)C(=O)NC2=O)c2cc3c(cc21)OCO3` [9-ING-41], the “Natural Killer activity” value in the data set on SW480 tumor cells (IC50 dose, 1:1 E:T, 24 hours) was “stimulation of Natural Killer activity”. The “natural killer (NK-92) cell killing of colorectal cancer cells” value in the data set with SW480 tumor cells (compared to controls without drug treatment) is on record as “significant increase”. For the same compound, in the data set on advanced malignancies (a patient with BRAF V600E metastatic melanoma, previously treated), the clinical response entry is “complete response”. Moreover, in the data set with advanced malignancies (even in patients with extensive prior cytotoxic therapy), the “increased infection or opportunistic/unusual infections” value is “no evidence of increased infection”. Further, in the data set with advanced malignancies (monotherapy and combination with standard chemotherapy, NCT03678883), the “attributable Grade 3 or 4 serious adverse events” value is given as “without attributable Grade 3 or 4 serious adverse events”. Moreover, the myelosuppression result in the data set on advanced malignancies (patients) was “not associated with myelosuppression of any degree”. Moreover, in the data set with advanced malignancies (preliminary results from ongoing clinical trials), the safety profile entry is “excellent safety profile devoid of myelosuppressive and immunosuppressive effects”.
